Holding throughout (type): cell-based
One assay addresses T1, RXR-VDR heterodimer (Homo sapiens, UniProt P11473).
T1 construct: Add the Gal4-RXR-DEF and VP16-VDR-LBD; expressed in transfected cells; host or cells: SaOS-2 cells
T1 sequence (P11473 127-423 limits assumed): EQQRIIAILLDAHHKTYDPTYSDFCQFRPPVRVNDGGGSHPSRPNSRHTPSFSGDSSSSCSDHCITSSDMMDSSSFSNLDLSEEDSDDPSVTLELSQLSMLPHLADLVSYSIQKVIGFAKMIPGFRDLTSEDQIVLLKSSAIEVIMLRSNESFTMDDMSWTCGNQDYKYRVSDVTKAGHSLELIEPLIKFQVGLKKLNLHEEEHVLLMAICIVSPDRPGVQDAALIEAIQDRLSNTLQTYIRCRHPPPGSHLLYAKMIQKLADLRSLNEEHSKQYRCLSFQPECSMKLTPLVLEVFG
T1 sequence (P19793 201-462 partner limits assumed): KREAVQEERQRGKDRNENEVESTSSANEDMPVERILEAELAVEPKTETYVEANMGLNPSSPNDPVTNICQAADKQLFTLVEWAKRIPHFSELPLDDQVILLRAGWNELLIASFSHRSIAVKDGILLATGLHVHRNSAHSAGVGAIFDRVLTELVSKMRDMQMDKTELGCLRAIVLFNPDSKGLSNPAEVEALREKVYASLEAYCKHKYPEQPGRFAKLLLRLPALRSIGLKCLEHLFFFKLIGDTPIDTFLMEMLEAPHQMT
Kind of assay: RXR-VDR heterodimerization assay (SaOS-2 cells). The conditions noted are these: Gal4-RXR-DEF / VP16-VDR-LBD, luciferase reporter. From the text: 1. The RXR-VDR heterodimer Assay:
This assay provides the VDR activity of a test compound.
(1) Materials and Method for RXR-VDR Heterodimerization Assay:
Luciferase Assay Reagent: • Use Steady-Glo Luciferase Reagent from Promega (Cat # E2550) Consists of:
Add plain DMEM media to tubes for mixing the DNA
Add the Reporter gene pFR-LUC
Add the Gal4-RXR-DEF and VP16-VDR-LBD
Make a stock solution of the compounds in DMSO
Further dilute in D-MEM (Low Glucose—With out Phenol Red)
Read the plates after drug treatment
Add Steady-Glo Luciferase Reagent mixture/wells
Count each well using a Luminescence counter, Top Count NXT by Packard

For assay [1], the system named is IL-10 production in PBMCs. Kind of assay: IL-10 induction assay. As to conditions: PBMC; TPA/PHA stimulated human PBMCs, IL-10 immunoassay. The source says:
6. The IL-10 induction Assay
This is an in vitro efficacy assay for psoriasis, abscess and adhesion. Psoriasis involves both keratinocytes and immune cells. IL-10 is a unique cytokine because it is anti-inflammatory and immunosuppressive. This assay tells us whether a VDRM is able to function as an agonist in PBMCs (primary blood mononuclear cells) or not. A lower EC50 value is desirable in this assay since a compound with a lower EC50 value will be a better agonist in PBMCs.
(6) Materials and Method for Human IL-10 Induction Assay:
Isolation of Peripheral Blood Mononuclear Cells (PBMCs):
• A. Collect 50 ml of human blood and dilute with media, RPMI-1640. • B. Prepare sterile tubes with ficol. • C. Add diluted blood to tubes. • D. Centrifuge. • E. Discard the top layer and collect the cells from middle layer. • F. Divide all cells into four tubes and add media. • G. Centrifuge. • H. Aspirate off media and resuspend. • I. Collect all cells • J. Centrifuge. at 1200 rpm for 10 minutes. • K. Resuspend in RPMI-1640 with 2% FBS and count cells • Stimulation of PBMC: • L. Prepare TPA in DMSO. • M. Dissolve PHA in water. • N. Plate TPA/PHA treated PBMCs in well plates. • O. Incubate.
Treatment: • P. Prepare all compound dilutions in plain RPMI-1640 media. • Q. Add diluted compound. • R. Incubate. […]

For another assay, the system named is rat osteocalcin promoter. Kind of assay: OCN (osteocalcin) promoter assay. The conditions noted are these: RG-15 (ROS 17/2.8) cells, 48 hr treatment, luciferase reporter.
A further assay relates to KERtr cells. Kind of assay: Keratinocyte proliferation assay. As to conditions: Homo sapiens, 72 hr, BrdU incorporation, read-out: Kera. Prolif. IC50. As for the experimental part: 5. The Keratinocte Proliferation Assay
This Assay is indicative for the treatment of psoriasis.
(5) The Keratinocyte Proliferation Assay:
KERtr cells (Human skin keratinocyte transformed with a retrovirus vector, obtained from ATCC) were plated in 96-well flat-bottomed plates (3000 cells/well) in 100 µl keratinocyte serum free medium supplemented with bovine pituitary extract in the absence of EGF (Life Technologies, Rockville, Md.) and incubated at 37° C. for two days. The cells were treated with various concentrations of VDR ligands (ten-fold serial dilution from 10,000 nM to 0.1 nM in triplicate), dissolved in 100 μl keratinocyte serum free medium supplemented with bovine pituitary extract in the absence of EGF and incubated at 37° C. for 72 hr. BrdU (5-bromo-2′-deoxyuridine) incorporation was analyzed as a measure of DNA replication (Cell proliferation ELISA kit, Roche Diagnostics, Indianapolis, Ind.) and absorbance was measured at 405 nm. Potency values (IC50) values were determined as the concentration (nM) of compound that elicited a half-maximal response.

The next assay concerns the target T2, VDR (Homo sapiens, UniProt P11473).
T2 construct: the receptor expression vector pGal4-VDR-LBD (10 ng); expressed in transfected cells; host or cells: Caco-2 cells
T2 sequence (P11473 127-423 limits assumed): T1 sequence (P11473 127-423 limits assumed)
As to the kind of experiment: Caco-2 cell co-transfection assay (VDR CTF). The conditions noted are these: Caco-2 cells, pGal4-VDR-LBD co-transfection, luciferase reporter.

EC50 and IC50 data for one compound are collected here from US7750184B2, “Vitamin D receptor modulators” (Eli Lilly and Company, priority 2003, dated 2010).

Consider `CCC(CC)(c1ccc(OS(C)(=O)=O)cc1)c1ccc(OCC(O)C(C)(C)C)c(Cl)c1` (single isomer, unassigned) [Ex. 45, 51B, 3′-[3-chloro-4-(2-hydroxy-3,3-dimethylbutoxy)phenyl]-3′-(4-methylsulfonyloxyphenyl)pentane], for which the EC50 at RXR-VDR heterodimer is 24 nM; in the assay on rat osteocalcin promoter, 13 nM; on VDR, 353 nM. The figures for the IC50 (in assay [1]; with KERtr cells) were 39.5 nM and 27 nM, respectively.
